Data taken from US7709010B2, “Papillomavirus vaccine compositions” (Merck Sharp & Dohme Corp., priority 2007, dated 2010).

What was measured:
[1] = system: microorganisms (e.g., bacteria and fungi); assay: Anti-microbial effectiveness (AME) test (USP, EP-B, EP-A criteria); format: cell-based; conditions: initial screening, octavalent HPV formulation with MAA, stored one week at 2-8° C. before test
Procedure: The effectiveness of various preservatives in candidate HPV vaccine formulations was evaluated using an antimicrobial test (anti-microbial effectiveness (AME) test). AME testing was used to determine the ability of a preservative to reduce or eliminate microbes that may be introduced into the vial following product withdrawal. […] Briefly, the AME test comprises the EPA, EPB and USP criteria, which consist of inoculating 10^5-10^6 CFU/mL microorganisms (e.g., bacteria and fungi) per container at time zero, and evaluating the log reduction over time (Meyer et al., supra).
Thimerosal was also included as a reference.
All samples contained 562.5 mcg/mL MAA, 0.32 M NaCl, 10 mM His, 0.01% polysorbate-80 (PS-80), pH 6.2. Formulations containing chlorobutanol and propylparaben were tested with and without the addition of 120 mcg/mL ISCOMATRIX®.
Preservatives were added to octavalent HPV formulations comprising 8 types of HPV VLPs, as described in EXAMPLE 1, and were stored for one week at 2-8° C. prior to AME testing.
Several HPV vaccine formulations with various dose and combinations of preservatives, in the presence or absence of IMX adjuvant, were tested.
Each type of HPV VLP aqueous bulk was absorbed on MAA separately with a protein-to-adjuvant ratio of 0.71 to form the monovalent vaccines in 0.32 M NaCl, 10 mM Histidine (pH 6.2), 0.01% (w/v) PS-80. […]

HPV Type 18 VLPs = HPV Type 18 VLPs (Human papillomavirus type 18, UniProt P06794); format: binding; conditions: HPV18 VLPs, 2 months at 2-8° C., n=2, Biacore
Chain of HPV Type 18 VLPs (P06794 whole entry): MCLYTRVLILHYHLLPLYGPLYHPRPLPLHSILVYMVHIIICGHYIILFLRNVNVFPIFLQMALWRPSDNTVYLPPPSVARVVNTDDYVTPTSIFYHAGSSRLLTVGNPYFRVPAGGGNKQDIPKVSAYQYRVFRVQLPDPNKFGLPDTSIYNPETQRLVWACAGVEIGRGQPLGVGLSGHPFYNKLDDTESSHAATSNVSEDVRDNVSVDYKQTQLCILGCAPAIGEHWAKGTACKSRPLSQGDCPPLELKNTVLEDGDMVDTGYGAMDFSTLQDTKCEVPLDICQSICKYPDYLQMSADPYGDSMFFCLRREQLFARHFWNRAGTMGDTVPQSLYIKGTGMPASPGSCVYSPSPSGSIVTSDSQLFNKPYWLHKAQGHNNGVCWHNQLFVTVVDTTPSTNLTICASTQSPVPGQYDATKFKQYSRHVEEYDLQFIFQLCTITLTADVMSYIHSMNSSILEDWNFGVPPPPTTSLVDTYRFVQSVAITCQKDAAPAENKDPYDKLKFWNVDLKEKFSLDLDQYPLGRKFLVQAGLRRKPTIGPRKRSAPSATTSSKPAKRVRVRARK
Procedure: The in vitro antigenicity of HPV vaccine formulations comprising HPV18 VLPs and different preservatives was evaluated using a neutralization antibody binding assay (Biacore, Surface Plasmon Resonance). The analysis for antigen bioactivity was determined using the Biacore 2000 (VPR 332) and Biacore 3000 (VPR 696) (Biacore, Inc., Piscataway, N.J.).
Samples were incubated for 2 months at 2-8° C. prior to sample treatment by aluminum dissolution, followed by the final Biacore analysis.

HPV18 VLPs = HPV18 VLPs (Human papillomavirus type 18, UniProt P06794); format: physicochemical, HPV; conditions: data not shown
Chain of HPV18 VLPs (P06794 whole entry): as above
Procedure: Differential Scanning Calorimetry (DSC) was used to evaluate the impact of preservatives on protein structural and thermal stability. The analysis for antigen thermal stability was determined using a VP-Capillary DSC Platform (MicroCal, LLC, Northampton, Mass.). A detailed description of the conditions utilized is disclosed in Ionescu et al. (2007) (J. Pharm. Sci. 97(4): 1414-1426 (2008)).
The DSC evaluation was carried out in the presence of various preservatives with varied concentrations.

Compound	AME test criteria passed (USP, EP-B, EP-A) [1]	average relative in vitro antigenicity (HPV Type 18 VLPs) [%]	impact on the thermal stability of HPV type 18 (DSC) (HPV18 VLPs)
OCCOc1ccccc1 [2-phenoxyethanol]	did not pass EP-B or EP-A		
C[CH2][Hg][S]c1ccccc1C(=O)[O-].[Na+] [thimerosal]		80	greatest impact
